ChEMBL document CHEMBL1201862, “PubChem BioAssay data set” (2004)
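Grown in 96-well plates, cells were treated for 48 hours with each compound at five concentrations. Insufficient inhibition: endpoint recorded as highest concentration tested. Abbreviation: GI50, concentration required for 50% inhibition of growth.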 Active and inactive are the calls of the source. Rule as the data show it: active = GI50 up to about 1.1 µM and inactive = higher.

Assays:
Assay in all cases: NCI tumour cell line growth inhibition, 48 h
MOLT-4 = tested on: MOLT-4
HCC 2998 = tested on: HCC 2998
XF498 = tested on: XF498
HL-60 = tested on: HL-60
IGROV-1 = tested on: IGROV-1
Malme-3M = tested on: Malme-3M
CAKI-1 = tested on: CAKI-1
SK-MEL-5 = tested on: SK-MEL-5
UO-31 = tested on: UO-31
HT-29 = tested on: HT-29
OVCAR-3 = tested on: OVCAR-3
A549 = tested on: A549
SK-MEL-2 = tested on: SK-MEL-2
OVCAR-4 = tested on: OVCAR-4
NCI-H460 = tested on: NCI-H460
KM12 = tested on: KM12
HCT-116 = tested on: HCT-116
NCI-H522 = tested on: NCI-H522
Hs-578T = tested on: Hs-578T
BT-549 = tested on: BT-549

SMILES	GI50 (MOLT-4)	GI50 (HCC 2998)	GI50 (XF498)	GI50 (HL-60)	GI50 (IGROV-1)	GI50 (Malme-3M)	GI50 (CAKI-1)	GI50 (SK-MEL-5)	GI50 (UO-31)	GI50 (HT-29)	GI50 (OVCAR-3)	GI50 (A549)	GI50 (SK-MEL-2)	GI50 (OVCAR-4)	GI50 (NCI-H460)	GI50 (KM12)	GI50 (HCT-116)	GI50 (NCI-H522)	GI50 (Hs-578T)	GI50 (BT-549)
CC/C(C)=C1\CCC(CN(C)C)C1=O (stereo not given)	26.7 µM (inactive)	25.2 µM (inactive)	19.7 µM (inactive)	18.4 µM (inactive)	20 µM (inactive)	22 µM (inactive)	1.91 µM (inactive)	33.3 µM (inactive)	20.2 µM (inactive)	23.1 µM (inactive)	19.1 µM (inactive)	22.9 µM (inactive)	17.6 µM (inactive)	17.6 µM (inactive)	19.3 µM (inactive)	15 µM (inactive)	17.8 µM (inactive)	–	–	–
CN1C(=O)C(=CN)C(=O)N(C)C1=O	> 100 µM (inactive)	> 100 µM (inactive)	> 100 µM (inactive)	> 100 µM (inactive)	–	> 100 µM (inactive)	> 100 µM (inactive)	> 100 µM (inactive)	> 100 µM (inactive)	> 100 µM (inactive)	> 100 µM (inactive)	> 100 µM (inactive)	> 100 µM (inactive)	> 100 µM (inactive)	> 100 µM (inactive)	> 100 µM (inactive)	–	> 100 µM (inactive)	–	–
Cc1ccc2c(c1)CNc1ccc(C)cc1CN2	> 100 µM (inactive)	–	> 100 µM (inactive)	> 100 µM (inactive)	> 100 µM (inactive)	–	> 100 µM (inactive)	62.4 µM (inactive)	> 100 µM (inactive)	> 100 µM (inactive)	> 100 µM (inactive)	> 100 µM (inactive)	> 100 µM (inactive)	> 100 µM (inactive)	> 100 µM (inactive)	> 100 µM (inactive)	> 100 µM (inactive)	> 100 µM (inactive)	–	–
CCOC(=O)C1(C/C=C(/C)Cl)CCCC1=O (stereo not given)	> 100 µM (inactive)	–	> 100 µM (inactive)	86.5 µM (inactive)	> 100 µM (inactive)	> 100 µM (inactive)	> 100 µM (inactive)	> 100 µM (inactive)	> 100 µM (inactive)	> 100 µM (inactive)	> 100 µM (inactive)	> 100 µM (inactive)	> 100 µM (inactive)	> 100 µM (inactive)	> 100 µM (inactive)	> 100 µM (inactive)	> 100 µM (inactive)	> 100 µM (inactive)	–	–
CC1CC(C2=CC=CCS2)=Nc2ccccc2S1 (stereo not given)	> 100 µM (inactive)	80.4 µM (inactive)	> 100 µM (inactive)	> 100 µM (inactive)	> 100 µM (inactive)	> 100 µM (inactive)	> 100 µM (inactive)	> 100 µM (inactive)	> 100 µM (inactive)	–	> 100 µM (inactive)	> 100 µM (inactive)	> 100 µM (inactive)	> 100 µM (inactive)	> 100 µM (inactive)	> 100 µM (inactive)	84.9 µM (inactive)	92.3 µM (inactive)	–	–
COC1=CC(=O)[C@H]2[C@H](C)C(c3ccccc3)[C@@]2(C)C1=O (stereo not given in full)	> 100 µM (inactive)	> 100 µM (inactive)	> 100 µM (inactive)	> 100 µM (inactive)	> 100 µM (inactive)	> 100 µM (inactive)	> 100 µM (inactive)	> 100 µM (inactive)	> 100 µM (inactive)	> 100 µM (inactive)	> 100 µM (inactive)	> 100 µM (inactive)	> 100 µM (inactive)	> 100 µM (inactive)	> 100 µM (inactive)	> 100 µM (inactive)	–	> 100 µM (inactive)	–	–
COc1ccc2cc3[n+](cc2c1OC)CCc1cc(O)c(O)cc1-3	> 100 µM (inactive)	–	> 100 µM (inactive)	> 100 µM (inactive)	> 100 µM (inactive)	> 100 µM (inactive)	> 100 µM (inactive)	> 100 µM (inactive)	> 100 µM (inactive)	> 100 µM (inactive)	> 100 µM (inactive)	> 100 µM (inactive)	–	> 100 µM (inactive)	> 100 µM (inactive)	> 100 µM (inactive)	> 100 µM (inactive)	> 100 µM (inactive)	–	–
Cn1cc2c3ccccc3nc-2c2ccccc21 [ISOCRYPTOLEPINE]	0.421 µM (active)	1.6 µM (inactive)	–	2.04 µM (inactive)	1.63 µM (inactive)	2.28 µM (inactive)	2.32 µM (inactive)	1.7 µM (inactive)	1.4 µM (inactive)	1.29 µM (inactive)	2.36 µM (inactive)	2.17 µM (inactive)	1.91 µM (inactive)	1.92 µM (inactive)	1.44 µM (inactive)	2.08 µM (inactive)	1 µM (active)	1.41 µM (inactive)	2.3 µM (inactive)	3.26 µM (inactive)
